The values that follow come from US11365410B2, “Production and monitoring of metabolites in cells” (President and Fellows of Harvard College, priority 2015, dated 2022).

Series [1] has as its target T1, TtgR (Pseudomonas putida), regulator sequence SEQ ID NO: 14 (Pseudomonas putida, UniProt Q9AIU0).
T1 construct: expressed in transfected cells; host or cells: E. coli DH5alpha transformed with pJKR-H (high copy) or pJKR-L (low copy) plasmid
As to conditions: no test described; cited from earlier work.

A further series concerns acuR. Nature of the series: acuR-based 3HP biosensor induction (indirect, via acrylate). The format is cell-based, Rhodobacter sphaeroides. The following applies: acrylate; no helper plasmid. The method, then:
Metab Eng, 16, 130-139 hereby incorporated by reference in its entirety). All three reactions are useful for a prpR-based biosensor, but for the acuR-based biosensor, accumulation of acrylyl-CoA rather than propionyl-CoA is necessary. […] Accordingly, the domain responsible for conversion of acrylyl-CoA to propionyl-CoA was removed while preserving the activity of the other two domains. […] A 90-fold increase in fluorescence was obtained when the acuR-based biosensor was induced with 10 mM 3HP. […] Fluorescence remained at background levels for greater than 16 hours in the absence of pcs^Δ3 and ach (see FIG. 17).
Plasmids were constructed using Gibson isothermal assembly methods (see Gibson, D. G., Young, L., Chuang, R. Y., Venter, J. C., Hutchison, C. A., 3rd and Smith, H. O. (2009) Enzymatic assembly of DNA molecules up to several hundred kilobases. Nat Methods, 6, 343-345 hereby incorporated by reference in its entirety) and cloned into DH5α electrocompetent cells purchased from New England Biolabs. Biosynthesis of product molecules was carried out in either BL21 (DE3) or DH5α. The prpR-based 3HP biosensor was implemented as a two-plasmid system. The first plasmid is pPro24-GFP (Addgene plasmid #18880), which expresses GFPuv under the control of the methyl-citrate responsive transcription factor, prpR, on a pBR322 origin of replication providing β-lactam resistance. […]

For series [2], the target named is T2, AcuR (Rhodobacter sphaeroides), regulator sequence SEQ ID NO: 9 (Cereibacter sphaeroides, UniProt Q3J6K8).
T2 construct: expressed in transfected cells; host or cells: E. coli DH5alpha transformed with pJKR-H (high copy) or pJKR-L (low copy) plasmid
T2 sequence (Q3J6K8 1-219): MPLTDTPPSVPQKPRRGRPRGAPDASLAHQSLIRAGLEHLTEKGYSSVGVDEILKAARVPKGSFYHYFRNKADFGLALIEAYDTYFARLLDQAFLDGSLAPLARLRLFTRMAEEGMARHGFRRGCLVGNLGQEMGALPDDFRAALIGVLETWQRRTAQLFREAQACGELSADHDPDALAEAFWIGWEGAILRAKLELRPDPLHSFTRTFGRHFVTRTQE
Kind of series: AcuR biosensor induction (sfGFP reporter, Hill fit). The format is cell-based. The following applies: acrylate. The source says:
Plasmids were constructed using Gibson isothermal assembly methods (see Gibson, D. G., Young, L., Chuang, R. Y., Venter, J. C., Hutchison, C. A., 3rd and Smith, H. O. (2009) Enzymatic assembly of DNA molecules up to several hundred kilobases. Nat Methods, 6, 343-345 incorporated herein by reference in its entirety) and transformed into DH5α electrocompetent cells (New England Biolabs, Ipswich Mass.). […] Each inducible system was implemented on high and low copy plasmids. High copy pJKR-H plasmids were constructed with the pUC origin and beta lactamase antibiotic resistance marker derived from pUC19 (New England Biolabs, Ipswich Mass.). Low copy pJKR-L plasmids were constructed in the same way, except that the pUC origin was replaced by the SC101 origin (including repA) from pSC101 obtained from American Type Culture Collection (ATCC #37032). […] In both these plasmids the antibiotic resistance gene and origin of replication were replaced with p15a-aadA and colA-kanR. Each enzyme was cloned downstream of the constitutive promoter P2 (see Mutalik, V. K., Guimaraes, J. C., Cambray, G., Lam, C., Christoffersen, M. J., Mai, Q. A., Tran, A. B., Paull, M., Keasling, J. D., Arkin, A. P. et al. (2013) Precise and reliable gene expression via standard transcription and translation initiation elements. Nat Methods, 10, 354-360 hereby incorporated by reference in its entirety) and g10 RBS to create pJKR-MIOX variants. These expression plasmids used the colA origin of replication and kanamycin resistance gene for maintenance. Sequences and plasmids are available on Addgene (plasmid numbers 62557-62570).
DH5α cells transformed with pJKR plasmids and maintained with carbenicillin were used in the induction assays. For each induction evaluation experiment, the cells were grown overnight to saturation before being diluted 1:100 into fresh LB media and incubated at 200 RPM and 37° C. […] Measurements were made on the same Biotek (Winooksi, Vt.) HT plate reader using the same settings: excitation 485/20, emission 528/20, 37° C. and fast shaking. Fluorescence and absorbance were measured every 10 minutes for 15 hours. Fluorescence was measured in arbitrary units (AFU) while optical density was determined by absorbance (OD). Normalized fluorescence was determined by dividing fluorescence by optical density for a given measurement. […]
The ratio of fluorescence to absorbance at 600 nm was used in order to compensate for changes in cell density over time and between experiments (AFU/OD). […] This transfer function is plotted on a log-log scale in FIG. 1A and FIG. 1B to capture the wide range of inducer concentrations and resulting fluorescence values. […]

The test system of the next series is E. coli DH5α cells. Kind of series: Toxicity of inducer chemicals (growth). The method, then:
Growth rate was measured for each combination of chemical and concentration during the exponential phase of growth. Rates were normalized to the growth rate of cells without any added chemical and plotted as bar height. Concentration of each inducer is indicated in the table, corresponding to the bar chart by order and color. […] Inducer concentrations mirror the concentrations used in the induction experiments.
150 μl of cells were transferred into 96-well plates and the assayed chemical was immediately added in triplicate before further incubation at 600 RPM and 37° C.
Toxicity of the inducer chemicals was measured to help guide the choice of inducer concentration for biosensor applications. In applications where maximum protein production is the goal, toxicity will be less of a consideration. In contrast, sub-toxic induction is important for complex circuits that require the cell to maintain a healthy cell state.

The structures appear in SMILES notation.

Turning to `O=C(N[C@H](CO)[C@H](O)c1ccc([N+](=O)[O-])cc1)C(Cl)Cl` [Chloramphenicol, chloramphenicol], in series [1], the “Activation of TtgR by chloramphenicol” value is “activation”.

For `C=CC(=O)O` [Acrylate, acrylate], the “Response of acrylate biosensor without helper plasmid” value with acuR is reported as “respond to acrylate”. In series [2] (high copy), the “Hill Coefficient” value stood at 3.2 ± 0.3 and the “Max Expression Velocity” value stood at 910 ± 40 s⁻¹. Besides, in series [2] (low copy), the “Hill Coefficient” value came out at 1.3 ± 0.1 and the “Max Expression Velocity” value came to 150 ± 10 s⁻¹. In addition, the “Toxicity in induction experiment” value in the series with E. coli DH5α cells (10 mM acrylate) is reported as “high toxicity”. In addition, the Toxicity entry in the series on E. coli DH5α cells (acrylate 5 mM and 10 mM) was “substantial toxicity”.
